US9586966B2, “Piperazino[1,2-a]indol-1-ones and [1,4]diazepino[1,2-a]indol-one” (Hoffmann-La Roche Inc., priority 2013, dated 2017)

What was measured:
[1] = tested on: human embryonic stem cell derived neural stem cells (NSCs); test: Neural stem cell proliferation assay (neurogenesis assay, ATP levels by CellTiterGlo); format: cell-based; settings: 96 h, concentration at which 150% activity of control (100%) is reached, NSC proliferation, ATP levels after 4 days incubation, dose response 8 μM to 8 nM
Experimental: Neural Stem Cell Proliferation Assay
Neurogenic properties of small molecules are determined based on the proliferation of human embryonic stem cell derived neural stem cells (NSCs) which were derived via a dual smad inhibition as previously described (Chambers, S. M., et al., Highly efficient neural conversion of human ES and iPS cells by dual inhibition of SMAD signaling, Nature biotechnology, 2009. 27(3): p. 275-80.)
Compounds respond is measured by the increase in cells based on ATP levels (Promega:CellTiterGlo®) after an incubation period of 4 days.
NSCs are thawed and expanded over 3 passages. On the 14th day, NSCs are seeded in Polyornithin/Laminin coated 384 well plates at a cell density of 21′000 cells/cm^2 in a media volume of 38 μl. 4 hours after cell seeding, compound solutions are added at a volume of 2 μl. Stock solutions of the compounds (water, 5% DMSO) are diluted to obtain a dose response (11 points, dilution factor is 2), ranging from 8 μM to 8 nM. Controls are run to consistently determine the neurogenic properties of the cells:
Negative (neutral) control is cell culture Media (final DMSO concentration: 0.25%).
1. cell culture Media+100 ng/ml FGF2 (final DMSO concentration: 0.1%)
2. cell culture Media+20 ng/ml EGF (final DMSO concentration: 0.1%)
3. cell culture Media+100 ng/ml Wnt3a (final DMSO concentration: 0.1%)
After 4 days incubation at 37° C., 5% CO2, the amount of ATP per well is quantified. The ATP concentration is proportional to the cell number. ATP is quantified by using the Promega CellTiterGlo® kit. The CellTiterGlo® reagents contain a cell lysis buffer, a thermo stable luciferase (UltraGlo™ recombinant luciferase), magnesium and luciferin. Luciferin reacts with ATP producing oxyluciferin, AMP and light. The luminescence signal is proportional to the ATP content.
The value of negative (neutral) control is determined for each assay plate by taking the average of 16 negative control wells. The neurogenic compound response is calculated for each compound as (compound/Negative Control)*100.
The values of EC150 from the dose response curve are determined for each test compound. The EC150 is the compound concentration at which 150% activity of control (100%) is reached.

Structure (SMILES)	EC (150% of control) [1] [µM]	melting point [°C]
Cc1c2n(c3c(C)cc(Cl)cc13)CCNC2=O [Example 7, 8-Chloro-6,10-dimethyl-3,4-dihydro-2H-pyrazino[1,2-a]indol-1-one]	0.11	251
C=CCc1cc(F)cc2c(C)c3n(c12)CCNC3=O [Example 11, 6-Allyl-8-fluoro-10-methyl-3,4-dihydro-2H-pyrazino[1,2-a]indol-1-one]	0.14	172
Cc1c2n(c3c(N4CCS(=O)(=O)CC4)cc(Cl)cc13)CCNC2=O [Example 17, 8-Chloro-6-(1,1-dioxo-1λ^6-thiomorpholin-4-yl)-10-methyl-3,4-dihydro-2H-pyrazino[1,2-a]indol-1-one]	0.011	386
Cc1cc(CC(C)C)c2c(c1)cc1n2CCNC1=O [Example 31, 8-Methyl-6-(2-methylpropyl)-3,4-dihydro-2H-pyrazino[1,2-a]indol-1-one]	1.16	182
Cc1c2n(c3c(N4CCS(=O)(=O)CC4)cc(C#N)cc13)CCNC2=O [Example 19, 6-(1,1-Dioxo-1λ^6-thiomorpholin-4-yl)-10-methyl-1-oxo-1,2,3,4-tetrahydro-pyrazino[1,2-a]indole-8-carbonitrile]	0.008	400
Cc1c2n(c3c(C)cc(Cl)cc13)CCCNC2=O [Example 39, 9-Chloro-7,11-dimethyl-2,3,4,5-tetrahydro-[1,4]diazepino[1,2-a]indol-1-one]	0.36	198
Cc1c2n(c3c(C#N)cc(F)cc13)CCNC2=O [Example 29, 8-Fluoro-10-methyl-1-oxo-3,4-dihydro-2H-pyrazino[1,2-a]indole-6-carbonitrile]	0.5	265
C#Cc1cc(F)cc2c(C)c3n(c12)CCNC3=O [Example 20, 6-Ethynyl-8-fluoro-10-methyl-3,4-dihydro-2H-pyrazino[1,2-a]indol-1-one]	0.04	259
CC(C)Cc1cc(Cl)cc2cc3n(c12)CCNC3=O [Example 26, 8-Chloro-6-(2-methylpropyl)-3,4-dihydro-2H-pyrazino[1,2-a]indol-1-one]	0.16	236
Cc1c2n(c3c(N4CCS(=O)(=O)CC4)cc(F)cc13)CCNC2=O [Example 9, 6-(1,1-Dioxo-1λ^6-thiomorpholin-4-yl)-8-fluoro-10-methyl-3,4-dihydro-2H-pyrazino[1,2-a]indol-1-one]	0.015	387
Cc1c2n(c3c(N4CC5(COC5)C4)cc(F)cc13)CCNC2=O [Example 16, 8-Fluoro-10-methyl-6-(2-oxa-6-aza-spiro[3.3]hept-6-yl)-3,4-dihydro-2H-pyrazino[1,2-a]indol-1-one]	0.23	237
Cc1c2n(c3c(CCCC#N)cc(F)cc13)CCNC2=O [Example 13, 4-(8-Fluoro-10-methyl-1-oxo-1,2,3,4-tetrahydro-pyrazino[1,2-a]indol-6-yl)-butyronitrile]	0.31	194
Cc1c2n(c3c(C)cc(C#N)cc13)CCCNC2=O [Example 35, 7,11-Dimethyl-1-oxo-2,3,4,5-tetrahydro-[1,4]diazepino[1,2-a]indole-9-carbonitrile]	3.19	255
Cc1c2n(c3c(N4CCOCC4)cc(F)cc13)CCNC2=O [Example 6, 8-Fluoro-10-methyl-6-morpholin-4-yl-3,4-dihydro-2H-pyrazino[1,2-a]indol-1-one]	0.21	226
Cc1cc(CC(C)C)c2c(c1)cc1n2CCCNC1=O [Example 32, 9-Methyl-7-(2-methylpropyl)-2,3,4,5-tetrahydro-[1,4]diazepino[1,2-a]indol-1-one]	2.6	160
CC(C)Cc1cc(Cl)cc2cc3n(c12)CCCNC3=O [Example 25, 9-Chloro-7-(2-methylpropyl)-2,3,4,5-tetrahydro-[1,4]diazepino[1,2-a]indol-1-one]	1.15	186
Cc1c2n(c3c(N4CCS(=O)(=O)CC4)cc(C#N)cc13)CCCNC2=O [Example 42, 7-(1,1-Dioxo-1,4-thiazinan-4-yl)-11-methyl-1-oxo-2,3,4,5-tetrahydro-[1,4]diazepino[1,2-a]indole-9-carbonitrile]	0.077	393
CC(C)Cc1cc(OC(F)(F)F)cc2cc3n(c12)CCNC3=O [Example 37, 6-(2-Methylpropyl)-8-(trifluoromethoxy)-3,4-dihydro-2H-pyrazino[1,2-a]indol-1-one]	0.89	166
Cc1c2n(c3c(N4CCOCC4)cc(C#N)cc13)CCCNC2=O [Example 44, 11-Methyl-7-morpholin-4-yl-1-oxo-2,3,4,5-tetrahydro-[1,4]diazepino[1,2-a]indole-9-carbonitrile]	0.046	227
Cc1c2n(c3c(CC(C)C)cc(F)cc13)CCNC2=O [Example 3, 8-Fluoro-6-isobutyl-10-methyl-3,4-dihydro-2H-pyrazino[1,2-a]indol-1-one]	0.009	189
Cc1c2n(c3ccc(F)cc13)CCNC2=O [Example 4, 8-Fluoro-10-methyl-3,4-dihydro-2H-pyrazino[1,2-a]indol-1-one]	0.31	230
N#Cc1cc(N2CCOCC2)c2c(c1)cc1n2CCNC1=O [Example 46, 6-Morpholin-4-yl-1-oxo-3,4-dihydro-2H-pyrazino[1,2-a]indole-8-carbonitrile]	0.04	280
CC(C)Cc1cc(C#N)cc2cc3n(c12)CCNC3=O [Example 21, 6-Isobutyl-1-oxo-1,2,3,4-tetrahydro-pyrazino[1,2-a]indole-8-carbonitrile]	0.14	260.5
Cc1cc(F)cc2cc3n(c12)CCNC3=O [Example 2, 8-Fluoro-6-methyl-3,4-dihydro-2H-pyrazino[1,2-a]indol-1-one]	0.17	250.5
Cc1c2n(c3c(C)cc(F)cc13)CCNC2=O [Example 5, 8-Fluoro-6,10-dimethyl-3,4-dihydro-2H-pyrazino[1,2-a]indol-1-one]	0.074	208
CCc1cc(Cl)cc2c(C)c3n(c12)CCNC3=O [Example 10, 8-Chloro-6-ethyl-10-methyl-3,4-dihydro-2H-pyrazino[1,2-a]indol-1-one]	0.34	191
Cc1c2n(c3c(OC(F)(F)F)cc(C#N)cc13)CCNC2=O [Example 30, 10-Methyl-1-oxo-6-(trifluoromethoxy)-3,4-dihydro-2H-pyrazino[1,2-a]indole-8-carbonitrile]	0.11	253
CC(C)Cc1cc(F)cc2cc3n(c12)CCNC3=O [Example 23, 8-Fluoro-6-(2-methylpropyl)-3,4-dihydro-2H-pyrazino[1,2-a]indol-1-one]	0.02	229
